Laboratory results published in patent publication USRE40793E1, “Bicyclic benzamides of 3-or 4-substituted 4-(aminomethyl)-piperidine derivatives” (Janssen Pharmaceutica, N.V., priority 1997, dated 2009).

Tested on: conscious dogs
Experiment: Gastric emptying of an acaloric liquid test meal delayed by administration of lidamidine, in conscious dogs
Assay type: in vivo, beagle dogs
Settings: conscious dog; for ΔT/T^b (acceleration of gastric emptying of a liquid meal delayed by lidamidine) / change in vivo at 0.0025 mg/kg: dose 0.0025 mg/kg; for ΔT/T^a (acceleration of gastric emptying of a liquid meal delayed by lidamidine) / change in vivo at 0.01 mg/kg: dose 0.01 mg/kg; for change in vivo at 0.0025 mg/kg / change in vivo at 0.01 mg/kg: Canis lupus familiaris; for change in vivo at 0.0025 mg/kg: read-out: ΔT/T^b (acceleration of gastric emptying of a liquid meal delayed by lidamidine); for change in vivo at 0.01 mg/kg: read-out: ΔT/T^a (acceleration of gastric emptying of a liquid meal delayed by lidamidine)
Excerpt: C. Pharmacological Examples C.1. Gastric Emptying of an Acaloric Liquid Test Meal Delayed by Administration of Lidamidine, in Conscious Dogs
Female beagle dogs, weighing 7-14 kg, were trained to stand quietly in Pavlov frames. They were implanted with a gastric cannula under general anesthesia and aseptic precautions. After a medium laparatomy, an incision was made through the gastric wall in the longitudinal direction between the greater and the lesser curve, 2 cm above the nerves of Latarjet. The cannula was secured to the gastric wall by means of a double purse string suture and brought out via a stab wound at the left quadrant of the hypochondrium. Dogs were allowed a recovery period of at least two weeks. Experiments were started after a fasting period of 24 hours, during which water was available ad libitum. At the beginning of the experiment, the cannula was opened in order to remove any gastric juice or food remnants.
The stomach was cleansed with 40 to 50 ml lukewarm water. The test compound was administered I.V. (in a volume ≦3 ml via the vena cephalica), S.C. (in a volume ≦3 ml) or P.O. (in a volume of 1 ml/kg body weight, applied intragastrically via the cannula with a device that filled the lumen of the cannula: after injection of the test compound; 5 ml NaCl 0.9% was injected in order to correct for the dead space in the injection system). Immediately after administration of the test compound or its solvent, lidamidine (0.63 mg/kg was administered subcutaneously. 30 min later, the cannula was opened to determine the amount of fluid present in the stomach, promptly followed by reintroduction of the fluid. Then the test meal was administered via the cannula. This test meal consisted of 250 ml distilled water containing glucose (5 g/l) as a marker. The cannula remained closed for 30 min, whereafter the gastric contents were drained from the stomach to measure total volume (t=30 min). For later analysis 1 ml of the gastric contents was taken, promptly followed by reintroduction of the rest volume into the stomach. This sequence was repeated 4 times with 30 min intervals (t=60, 90, 120, 150 min).
In the 1 ml samples of the gastric contents, the glucose concentrations were measured on a Hitachi 717 automatic analyzer by the hexokinase method (Schmidt, 1961).
Curves were fitted to the measurement points (glucose versus time) using weighed non-linear regression analysis. Gastric emptying was quantified as the time needed to empty 70% of the meal (t 70%). The control emptying time was calculated as the mean t 70% of the last 5 solvent experiments of the same dog. Acceleration of delayed gastric emptying (Δt) was calculated as the time difference between t 70% compound and t 70% solvent. To correct for variations in emptying rate between dogs, Δt was expressed as % of t 70% solvent (Schuurkes et al. 1992)).

[1] = compounds, Δt = t 70% compound minus t 70% solvent, relative to t 70% solvent

Row | Compound | ΔT/T^b (acceleration of gastric emptying of a liquid meal delayed by lidamidine) [1] | ΔT/T^a (acceleration of gastric emptying of a liquid meal delayed by lidamidine) [1] | change in vivo at 0.0025 mg/kg [1] [%] | change in vivo at 0.01 mg/kg [1] [%] | other results
1 | CCCCN1CC[C@@H](CNC(=O)c2cc(Cl)c(N)c3c2OCC3)[C@@H](O)C1 (racemic) [Compound 1] | −0.23 | −0.20 |  |  | 
2 | Nc1c(Cl)cc(C(=O)NC[C@@H]2CCN(CCOCCO)C[C@H]2O)c2c1CCO2 (racemic) [Compound 17] | −0.30 | 0.06 |  |  | ΔT/T^b (acceleration of gastric emptying of a liquid meal delayed by lidamidine) (intermediates): −0.18; ΔT/T^a (acceleration of gastric emptying of a liquid meal delayed by lidamidine) (intermediates): −0.28
3 | N#CCCCN1CC[C@@H](CNC(=O)c2cc(Cl)c(N)c3c2OCC3)[C@H](O)C1 (racemic) [Compound 18] | −0.47 | −0.57 |  |  | 
4 | CC(C)OCCCN1CC[C@@H](CNC(=O)c2cc(Cl)c(N)c3c2OCC3)[C@H](O)C1 (racemic) [Compound 19] | −0.30 | −0.78 |  |  | 
5 | CS(=O)(=O)NCCN1CC[C@@H](CNC(=O)c2cc(Cl)c(N)c3c2OCC3)[C@H](O)C1 (racemic) [Compound 20] | −0.20 | −0.28 |  |  | 
6 | CCCCN1CC[C@@H](CNC(=O)c2cc(Cl)c(N)c3c2OCC3)[C@H](OC)C1 (racemic) [Compound 29] | −0.32 | −0.51 |  |  | 
7 | CCCCN1CC[C@@H](CNC(=O)c2cc(Cl)c(N)c3c2OC(C)(C)C3)[C@H](O)C1 (racemic) [Compound 36] |  | −0.01 |  |  | 
8 | COCCCN1CC[C@@H](CNC(=O)c2cc(Cl)c(N)c3c2OC(C)(C)C3)[C@H](O)C1.O=C(O)C(=O)O (racemic) [Compound 37] | −0.41 | −0.62 |  |  | 
9 | CC(C)OCCCN1CC[C@@H](CNC(=O)c2cc(Cl)c(N)c3c2OC(C)(C)C3)[C@H](O)C1.O=C(O)/C=C\C(=O)O (racemic) [Compound 42] |  | −0.12 |  |  | 
10 | CC(=O)CCCN1CC[C@@H](CNC(=O)c2cc(Cl)c(N)c3c2OC(C)(C)C3)[C@H](O)C1 (racemic) [Compound 49] | −0.19 | −0.28 |  |  | 
11 | CCCCN1CC[C@@H](CNC(=O)c2cc(Cl)c(N)c3c2OCC3)[C@H](O)C1 (relative stereo) [Compound 2, trans-4-amino-N-[(1-butyl-3-hydroxy-4-piperidinyl)methyl]-5-chloro-2,3-dihydro-7-benzofurancarboxamide] |  |  | -61 | -34 | 
12 | COCCCN1CC[C@@H](CNC(=O)c2cc(Cl)c(N)c3c2OCC3)[C@H](O)C1 (relative stereo) [Compound 3, trans-4-amino-5-chloro-2,3-dihydro-N-[[3-hydroxy-1-(3-methoxypropyl)-4-piperidinyl]methyl]-7-benzofurancarboxamide] |  |  | -51 | -73 | 
13 | CC(=O)CCCN1CC[C@H](CNC(=O)c2cc(Cl)c(N)c3c2OCC3)[C@H](O)C1 (relative stereo) [Compound 4, (cis)-4-amino-5-chloro-2,3-dihydro-N-[[3-hydroxy-1-(4-oxopentyl)-4-piperidinyl]methyl]-7-benzofurancarboxamide] |  |  | -21 | -8 | 
14 | CC(=O)CCCN1CC[C@@H](CNC(=O)c2cc(Cl)c(N)c3c2OCC3)[C@H](O)C1 (relative stereo) [Compound 5, trans-4-amino-5-chloro-2,3-dihydro-N-[[3-hydroxy-1-(4-oxopentyl)-4-piperidinyl]methyl]-7-benzofurancarboxamide] |  |  | -57 | -36 | 
15 | CO[C@@H]1CN(CCCC(C)=O)CC[C@H]1CNC(=O)c1cc(Cl)c(N)c2c1OCC2 (relative stereo) [Compound 28, trans-4-amino-5-chloro-2,3-dihydro-N-[[3-methoxy-1-(4-oxopentyl)-4-piperidinyl]methyl]-7-benzofurancarboxamide] |  |  | -42 | -56 | 
16 | COCCCN1CC[C@@H](CNC(=O)c2cc(Cl)c(N)c3c2OCC3)[C@H](OC)C1 (relative stereo) [Compound 30, trans-4-amino-5-chloro-2,3-dihydro-N-[[3-methoxy-1-(3-methoxypropyl)-4-piperidinyl]methyl]-7-benzofurancarboxamide] |  |  | -55 | -59 | 
17 | COCCCN1CC[C@@H](CNC(=O)c2cc(Cl)c(N)c3c2OC(C)(C)C3)[C@H](O)C1 (relative stereo) [Compound 39, trans-(−)-4-amino-5-chloro-2,3-dihydro-N-[[3-hydroxy-1-(3-methoxypropyl)-4-piperidinyl]methyl]-2,2-dimethyl-7-benzofurancarboxamide] | −0.43 | −0.53 |  |  | 
18 | COCCCN1CC[C@@H](CNC(=O)c2cc(Cl)c(N)c3c2OC(C)(C)C3)[C@H](O)C1 (relative stereo) [Compound 40, trans-(+)-4-amino-5-chloro-2,3-dihydro-N-[[3-hydroxy-1-(3-methoxypropyl)-4-piperidinyl]methyl]-2,2-dimethyl-7-benzofurancarboxamide] | −0.17 | −0.22 |  |  | 
19 | CCCCN1CC[C@@H](CNC(=O)c2cc(Cl)c(N)c3c2OC(C)(C)C3)[C@H](OC)C1.O=C(O)C(=O)O (relative stereo) [Compound 51] |  | −0.45 |  |  | 
20 | CO[C@@H]1CN(CCCC(C)=O)CC[C@H]1CNC(=O)c1cc(Cl)c(N)c2c1OC(C)(C)C2.O=C(O)C(=O)O (relative stereo) [Compound 52] |  | −0.18 |  |  | 
21 | CCCCN1CC[C@@H](CNC(=O)c2cc(Cl)c(N)c3c2OCCO3)[C@@H](O)C1.Cl.O (relative stereo) [Compound 54] | 0.04 | −0.28 |  |  | 
22 | CCCCN1CC[C@@H](CNC(=O)c2cc(Cl)c(N)c3c2OCCO3)[C@H](O)C1 (relative stereo) [Compound 55, (trans)-8-amino-N-[(1-butyl-3-hydroxy-4-piperidinyl)methyl]-7-chloro-2,3-dihydro-1,4-benzodioxin-5-carboxamide] |  |  | -18 | -29 | 
